The text below walks through data of PMC11191602, “A novel and selective fluorescent ligand for the study of adenosine A2B receptors” (Pharmacology Research & Perspectives, 2024).

The target in test [1] is T1, endogenous A2BR in human monocyte‐derived M2‐like macrophages (Homo sapiens, UniProt P29275).
T1 construct: monitor endogenous A2BR expression on human macrophages; endogenous in cells; host or cells: M1-like (GMCSF) and M2-like (MCSF) macrophages differentiated from CD14+ monocytes of healthy human donors
T1 sequence (P29275 1-332): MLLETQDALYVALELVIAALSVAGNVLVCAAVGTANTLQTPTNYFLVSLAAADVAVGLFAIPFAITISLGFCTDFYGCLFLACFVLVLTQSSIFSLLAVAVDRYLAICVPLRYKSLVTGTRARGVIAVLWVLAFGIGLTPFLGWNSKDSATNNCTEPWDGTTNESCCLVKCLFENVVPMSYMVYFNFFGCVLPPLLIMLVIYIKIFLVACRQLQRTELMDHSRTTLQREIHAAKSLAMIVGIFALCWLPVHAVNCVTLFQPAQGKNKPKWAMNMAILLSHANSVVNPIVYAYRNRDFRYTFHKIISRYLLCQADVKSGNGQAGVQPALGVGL
Briefly: Flow cytometry of PSB603‐BY630 binding to M2‐like macrophages. The format is cell-based. The settings on record: 100 nM PSB603‐BY630, 10 μM unlabelled PSB603, six donors, p <.01 paired t‐test. The method, then:
(§1) One hundred and fifty milliliter peripheral blood was obtained in heparinised 60 mL syringes by venepuncture from healthy volunteers after written informed consent (Ethics from University of Nottingham Ethics committee, ref 161–1711). Peripheral blood mononuclear cells (PBMC) were immediately separated by density centrifugation over Lymphoprep (Stemcell, UK) at 800g for 25 min on low brake followed by washes in endotoxin‐free phosphate‐buffered saline (PBS, Sigma). PBMC were washed in MACS buffer (PBS + 1% fetal calf serum (FCS, Sigma) + […] (Sigma)) then incubated with CD14 microbeads (Miltenyi Biotech) and monocytes isolated by magnetic separation on an AutoMACS Pro cell separator (Miltenyi). Cell purity was routinely assessed by flow cytometry (>95%). […]
(§2) Harvested macrophages were resuspended in staining buffer (HBSS [Sigma] supplemented with 2.5% v/v FCS and Ethylenediaminetetraacetic acid‐ EDTA 5 mM) at 2 × 10^6 cells/mL. […] BODIPY 630/650 fluorescence was measured on a MACSQuant 10 Flow Cytometer (Miltenyi) immediately after incubation (>5 × 10^4 events acquired). Flow cytometry data were analyzed using FlowJo software v10. […]

The target in test [2] is T2, endogenous A2BR in human monocyte‐derived M1‐like macrophages (Homo sapiens, UniProt P29275).
T2 construct: monitor endogenous A2BR expression on human macrophages; endogenous in cells; host or cells: M1-like (GMCSF) and M2-like (MCSF) macrophages differentiated from CD14+ monocytes of healthy human donors
T2 sequence (P29275 1-332): T1 sequence (P29275 1-332)
The test is described as follows: Flow cytometry of PSB603‐BY630 binding to M1‐like macrophages. Format: cell-based. The settings on record: 100 nM PSB603‐BY630, 10 μM unlabelled PSB603, six donors, p <.01 paired t‐test. As to the method:
as §1, §2

The test system of test [3] is A2BR. Details: method as in PMID 29106905, PMID 19569717. Particulars: cited from earlier work.
Test [4] has as its target T3, NLuc‐A2BR (Homo sapiens, UniProt P29275).
T3 construct: expressed in transfected cells
T3 sequence (P29275 1-332): T1 sequence (P29275 1-332)
Briefly: NanoBRET competition binding against 50 nM PSB603‐BY630 in HEK293G cells expressing NLuc‐A2BR. As to the method: Saturation and competition binding assays were performed as previously described.[36] Briefly, cells were seeded in 96‐well white clear‐bottomed Greiner plates pre‐treated with 10 μg/mL poly‐D‐lysine (Sigma‐Aldrich, Missouri USA) at a density of 30 000–35 000 cells per well in DMEM supplemented with 10% FBS. […] The NanoLuc substrate, furimazine (Promega Corporation, Wisconsin, USA), was then added to each well (1:400 dilution) and the plate was incubated for 10 min in the dark at 37°C. The resulting bioluminescence resonance energy transfer (BRET) was measured using a PHERAstar FS plate reader (BMG Labtech) at 37°C. For each well, filtered light emissions at 460 nm (80 nm bandpass) and >610 nm (longpass) for the BODIPY630/650 ligand were simultaneously measured. BRET ratios were calculated by dividing the 610 nm emission by the 460 nm emission. All conditions were performed in 2–6 replicates within each plate. For kinetic experiments, cells were preincubated for 10 min with 1:400 dilution of furimazine prior to addition of 200 nM PSB603‐BY630 and BRET ratios determined every 0.5 min.
The IC 50 values were then used to calculate the K i values using the Cheng‐Prussoff equation: Ki=IC50/1+L/KD where [L] is the concentration of PSB603‐BY630 in nM, and K D is the dissociation constant of that fluorescent ligand in nM.
In general terms: In BRET a luciferase serves as donor, and the signal depends on an acceptor being close.

Turning to `CCCn1c(=O)[nH]c2nc(-c3ccc(S(=O)(=O)N4CCN(c5ccc(Cl)cc5)CC4)cc3)[nH]c2c1=O` [PSB603, 8‐[4‐[4‐(4‐Chlorophenzyl)piperazide‐1‐sulfonylphenyl]]‐1‐propylxanthine], the “inhibition of PSB603‐BY630 binding (median fluorescence intensity)” value in test [1] is recorded as “significant inhibiton”. Moreover, the “inhibition of PSB603‐BY630 binding (median fluorescence intensity)” value in test [2] is reported as “significant inhibiton”. The “affinity for A2BR” value in test [3] is on record as “sub‐nanomolar”. In test [4], the “Appararent Log K i” value was −9.12 ± 0.08 and the “Log IC50” value was −8.55 ± 0.08.
